# Patent publication US8642654B2, “Hydroxybutyrate ester and medical use thereof” (ISIS Innovation Limited, priority 2011, dated 2014)
# Entries after “also recorded” stand apart in the source; their conditions may differ. Marks after values point to notes of the source that are not given here.
# Assays:
# [1] = In vivo testing, calorie-controlled diets, 66 days (Example 2); parameters: species or system Wistar rats
# Method: Young adult male Wistar rats (starting weight 70 g) (Harlan UK Limited) (n=50) were housed at approximately 20° C. on a 12h:12h reverse light:dark photoperiod. Rats were fed standard laboratory chow (Chow) (SDS, Essex, UK) prior to the starting the experimental diets: (a) normal “Western” diet (Western) in which 34% of kilocalories came from added palmitate (n=20), (b) high-carbohydrate (CHO) in which 70% of kilocalories came from added corn starch (n=10) or (c) (3R)-hydroxybutyl (3R)-hydroxybutyrate diet (monoester) in which 30% of kilocalories came from (3R)-hydroxybutyl (3R)-hydroxybutyrate (n=20). The macronutrient compositions of the three diets are shown below. All diets contained the same energy in kCal/g but had different macronutrients. Rats were individually housed one week prior to the start of the experiments, so that they were accustomed to living in a solitary environment by the time the study started. They consumed standard laboratory chow ad libitum until they were placed on their experimental diet. Rats fed the Western and carbohydrate diets were fed the same number of calories as those consumed by the monoester-fed rats the previous day. All rats were fed for 66 days. After this period the rat body, heart and fat pad weights were determined.
# [2] = In vivo testing, meal-fed diets (Example 3); settings: meal-fed rats, n=8 per group
# Text: Example 2 was repeated using the same foods as shown in Table 1 but where the rats were meal-fed. […] The daily body weight (in grams per rat per day) was plotted against time for rats in each of the three diet groups over the first six days of the test. One-way analysis of variance with Tukey-Kramer multiple comparison test was used (n=8 per group, **p<0.001). […] The body weight of rats in the group fed the carbohydrate diet remained high throughout the feeding process. […] The daily food intake (in grams per rat per day) was plotted against time for rats in each of the three diet groups over the first seven days of the test. Again, one-way analysis of variance with Tukey-Kramer multiple comparison test was used (n=8 per group, ***p<0.001).
# [3] = 28-day study, isonitrogenous and isocaloric diets (Example 4); type: in vivo, Wistar rats; settings: for total amount of weight gained compared with CHOD and NHD groups: 28-day study; for feed intake during days 22 to 29: KD; for body weight on day 28: KD group
# Text: In a 28-day study, male and female Wistar rats weighing approximately 350 g were randomized to one of three diet groups (n=10 males and 10 females/group) and administered either a carbohydrate diet (CHOD), a normal human diet (NHD), or a ketone diet (KD). The diets were isonitrogenous and isocaloric, differing only in their relative amounts of carbohydrate, fat, and ketones. In the KD, the ketone used was the ketone monoester (3R)-hydroxybutyl (3R)-hydroxybutyrate diet (i.e. the compound of the invention). In the KD, approximately ⅓ of the energy was derived from the ketone ester, while in the NHD and CHOD, ⅓ of the energy was derived from palmitate and starch, respectively.
# [4] = 14-day pair fed meal diets: food consumption and weight gain (Example 5); type: in vivo, Wistar rats; settings: rats, 14-day study
# Method: (§1) In a 14-day study, Wistar rats weighing about 250 g were randomized to one of three diet groups (n=6 rats/group) and administered either a carbohydrate (“starch”) diet, a normal human (“fat”) diet or a ketone ester diet, in which the ketone ester used was the ketone monoester (3R)-hydroxybutyl (3R)-hydroxybutyrate diet (i.e. the compound of the invention). The three diets were eaten in pair fed meals for 3 hours per day. The composition of the diets expressed in terms of g/100 g are summarised in Table 5 and the compositions expressed in terms of % of calories are summarised in Table 6.
# [5] = system: Krebs cycle and CoA intermediates in the brain; assay: Brain Krebs cycle and CoA intermediates after 14 days of diet; type: in vivo, Wistar rats; settings: rat brain
# Method: In a 14-day study, Wistar rats weighing about 250 g were randomized to one of three diet groups (n=6 rats/group) and administered either a carbohydrate (“starch”) diet, a normal human (“fat”) diet or a ketone ester diet, in which the ketone ester used was the ketone monoester (3R)-hydroxybutyl (3R)-hydroxybutyrate diet (i.e. the compound of the invention). The three diets were eaten in pair fed meals for 3 hours per day. The composition of the diets expressed in terms of g/100 g are summarised in Table 5 and the compositions expressed in terms of % of calories are summarised in Table 6. After eating the 3 diets in pair fed meals for 3 hours per day for 14 days, the levels of various Krebs cycle and CoA intermediates in the brain were measured enzymatically and by mass spectrometry using standard techniques. […] Malonyl CoA is a metabolite known to be associated with decreased food intake; it is known to decrease appetite (Wolfgang, M. J. and Lane, M. D. (2006) J. Biol. Chem. 281, 37265-37269). […] The values in Table 7 are means, in μmoles/g wet weight, ±SEM with n=6 to 8. CoA's are given in nmol/g wet weight.
# [6] = system: free nucleotide ratios and concentrations in the brain; assay: Calculated free nucleotide ratios and concentrations in freeze blown brain after 14 days of diet; type: in vivo, Wistar rats
# Method: as §1
# After the rats were fed on the diets for 14 days, the ratios of free nucleotide and the free nucleotide concentrations were determined. Measurements were performed on the freeze blown brain and metabolite ratios of the rats calculated as previously described (Veech, R. L. et al, J. Biol. Chem. 254:6538-47, 1979). The values in Table 8 are given as means±SEM (n=6 to 8). Cytosolic pH was assumed to be 7.2.
# [7] = system: Brain Derived Neurotropic Factor (BDNF); assay: Neuropeptide levels in sectioned rat brain by antibody techniques: BDNF; type: in vivo; settings: rat hypothalamus, ketone diet
# Method: (§2) In a 14-day study, Wistar rats weighing about 250 g were randomized to one of three diet groups (n=6 rats/group) and administered either a carbohydrate (“starch”) diet, a normal human (“fat”) diet or a ketone ester diet, in which the ketone ester used was the ketone monoester (3R)-hydroxybutyl (3R)-hydroxybutyrate diet (i.e. the compound of the invention). The three diets were eaten in pair fed meals for 3 hours per day. The composition of the diets expressed in terms of g/100 g are summarised in Table 5 and the compositions expressed in terms of % of calories are summarised in Table 6. After 14 days of feeding with the fat, carbohydrate or ketone ester diet, the levels of various neuropeptides known to be associated with decreased food intake and decreased appetite (“anorexigenic” peptides) were surveyed in the paraventricular nucleus (PVN) area of the hypothalamus and in the hippocampus of the rat brain. The neuropeptide levels were measured using standard antibody techniques performed on sectioned brains of the rats. The results are shown in the micrographs of FIGS. 3 to 9. The peptides measured were Brain Derived Neurotropic Factor (BDNF), melanocyte-stimulating hormone receptor 4 (MC4R), and Cocaine-and-Amphetamine Responsive Transcript (CART). […]
# [8] = system: melanocyte-stimulating hormone receptor 4 (MC4R); assay: Neuropeptide levels in sectioned rat brain by antibody techniques: MC4R; type: in vivo; settings: rat hypothalamus, 14 days ketone diet
# Method: as §2
# [9] = system: Cocaine-and-Amphetamine Responsive Transcript (CART); assay: Neuropeptide levels in sectioned rat brain by antibody techniques: CART; type: in vivo; settings: 14 days ketone diet
# Method: as §2
# [10] = Blood levels of (3R)-hydroxybutyrate after oral ingestion; type: in vivo; settings: ingested orally
# [11] = rats, monoester diet, 66 days, n = 20
# [12] = 14 days ketone ester diet, mean ± SEM
# [13] = rat brain, 14 days ketone ester diet, mean ± SEM
# [14] = rat brain, 14 days ketone ester diet, mean ± SEM, p < 0.05 vs starch and vs fat
smiles,measurement,setting,value
"C[C@@H](O)CCOC(=O)C[C@@H](C)O [Monoester, (3R)-hydroxybutyl (3R)-hydroxybutyrate]",fat pad weight compared with Western or carbohydrate diet,[1]; end of the 66-day test,significantly lower
same,fat to body weight compared with other diets,[1]; end of the 66-day test,significantly lower
same,Final body weight,"[1]; rats, monoester diet (30% of kilocalories), calorie-controlled, 66 days, n = 20",213 ± 5 g
same,Heart to body weight,[1]; [11],0.29 ± 0.01%
same,Heart weight,[1]; [11],0.64 ± 0.02 g
same,Epididymal fat,"[1]; rats, monoester diet, 66 days, n = 20, *P < 0.05",1.48 ± 0.2* g
same,Epididymal fat to body weight,"[1]; rats, monoester diet, 66 days, n = 20, *P < 0.05, in % (unit assumed)",0.69 ± 0.1*
same,daily food intake compared with carbohydrate and Western diets (FIG. 2),[2]; first seven days,ate less food; also recorded: consistently reduced
same,daily body weight compared with carbohydrate and Western diets (FIG. 1),[2]; first six days,Significantly reduced; also recorded: lost more weight
same,total amount of weight gained compared with CHOD and NHD groups,[3]; female rats,significantly less
same,feed intake during days 22 to 29,[3]; female rats,175 ± 12 g
same,body weight on day 28,[3]; female rats,240 ± 13 g
same,total amount of weight gained compared with CHOD and NHD groups,[3]; male rats,significantly less
same,feed intake during days 22 to 29,[3]; male rats,239 ± 17 g
same,body weight on day 28,[3]; male rats,390 ± 26 g
same,food consumption compared with starch or fat diets,[4],consume less food
same,weight gain compared with starch or fat diets,[4],gain less weight
same,malonyl CoA levels in the brain compared with other diets,[5]; 14 days,higher
same,Acetyl CoA,[5]; [12],6.43 ± 0.53 µM
same,Fumarate,[5]; [12],0.0745 ± 0.0058 μmoles/g wet weight
same,Isocitrate,[5]; [12],0.0093 ± 0.008 μmoles/g wet weight
same,L-Malate,[5]; [12],0.181 ± 0.013 μmoles/g wet weight
same,Succinate,[5]; [12],0.0864 ± 0.0033 μmoles/g wet weight
same,Succinyl CoA,[5]; [12],0.910 ± 0.207 µM
same,α-ketoglutarate,[5]; [12],0.140 ± 0.008 μmoles/g wet weight
same,Calc Oxaloacetate,"[5]; 14 days ketone ester diet, mean ± SEM, calculated",0.0026 ± 0.0004 μmoles/g wet weight
same,Citrate,"[5]; 14 days ketone ester diet, mean ± SEM, n=6 to 8",0.222 ± 0.010 μmoles/g wet weight
same,Malonyl CoA,"[5]; 14 days ketone ester diet, mean ± SEM, p < 0.05 between ketone ester and starch",1.26 ± 0.13 ^a μM
same,brain phosphorylation potential compared with carbohydrate and fat diets,[6]; after 14 days of diet,significantly higher
same,ΔG′ of ATP hydrolysis compared with carbohydrate and fat diets,[6]; after 14 days of diet,significantly higher
same,EhCoQ/CoQH2 from Fum/Succ,[6]; [13],28.9 ± 0.6 mV
same,Free [ADP] cytosol from PCr/Cr,[6]; [13],0.027 ± 0.001 µM/g
same,Free [AMP] cytosol from Kmyokinase,[6]; [13],0.0004 ± 0.00003 µM/g
same,Free [Mg^2+] from [Cit]/[Isocit],[6]; [13],1.5 ± 0.13 mM
same,Free [NAD^+]/[NADH] mitochochondria from αKGxNH4^+/Glut,[6]; [13],0.80 ± 0.17
same,Free [NAD^+]/[NADPH] cytosol from αKGxCO2/IsoCit,[6]; [13],0.026 ± 0.003
same,Free [NAD^+]/[NADH] cytosol from Lactate/Pyruvate,"[6]; rat brain, 14 days ketone ester diet, mean ± SEM, cytosolic pH assumed 7.2",357 ± 27
same,Phosphorylation Potential from Kg + g (Eqn 1),[6]; [14],"38,100 ± 3,390 ^a, b M^−1"
same,ΔG′ ATP,[6]; [14],"−59.6 ± 0.2 ^a, b kJ/mol"
same,"BDNF-positive cell bodies in the paraventricular nucleus (PVN), compared to fat and carbohydrate diets (FIG. 3)",[7],significantly more; also recorded: more BDNF; also recorded: significantly greater number
same,"MC4R positive cell bodies in pm and mpd regions of the PVN, compared to fat diet (FIGS. 4 and 5)",[8],significantly higher density; also recorded: more MC4R activity; also recorded: Significantly greater numbers; also recorded: significantly denser area
same,"CART-positive cell bodies in VMH, ARC and ME areas of the hypothalamus (FIG. 7)",[9],highest numbers
same,"CART positive cell bodies in the PVN, compared to fat and carbohydrate diets (FIGS. 6, 8, 9)",[9]; rat hypothalamus,highest level; also recorded: more CART; also recorded: significantly greater number; also recorded: highest density
same,blood levels of (3R)-hydroxybutyrate,[10],measurably raised
